Test results from paper PMC3866913 (Journal of medicinal chemistry, 2013).
pKd, pKi: −log10 of the molar value. Where two headings read alike, the source gives them in different places.

Columns and labels:
[1] = target: α2β2-nAChR (Rattus norvegicus, UniProt P12389+P12390); assay: Heteromeric nAChR binding, transfected HEK293 membranes, [3H]epibatidine
[2] = type: in vivo; conditions: mice, i.v.
[3] = target: α7-nAChR; conditions: read-out: α7-nAChR Ki, cited from earlier work
[4] = target: T1, α7-nAChR (Mus musculus, UniProt P49582); design: species or system CD-1 mice; conditions: in vivo
[5] = target: T1, α7-nAChR; assay: Blocking of [18F]7a with non-α7-nAChR CNS drugs in CD-1 mice; type: in vivo; conditions: 2 mg/kg, s.c., 10 min before radiotracer, 90 min after tracer
[6] = target: T1, α7-nAChR; conditions: in vivo
[7] = target: T2, α7-nAChR (Rattus norvegicus, UniProt Q05941); assay: biochemical; type: binding; conditions: two independent assays, each in duplicate
[8] = target: T2, α7-nAChR; conditions: read-out: KD of radiotracer at α7-nAChR; cited from earlier work

T1 sequence (P49582 23-502): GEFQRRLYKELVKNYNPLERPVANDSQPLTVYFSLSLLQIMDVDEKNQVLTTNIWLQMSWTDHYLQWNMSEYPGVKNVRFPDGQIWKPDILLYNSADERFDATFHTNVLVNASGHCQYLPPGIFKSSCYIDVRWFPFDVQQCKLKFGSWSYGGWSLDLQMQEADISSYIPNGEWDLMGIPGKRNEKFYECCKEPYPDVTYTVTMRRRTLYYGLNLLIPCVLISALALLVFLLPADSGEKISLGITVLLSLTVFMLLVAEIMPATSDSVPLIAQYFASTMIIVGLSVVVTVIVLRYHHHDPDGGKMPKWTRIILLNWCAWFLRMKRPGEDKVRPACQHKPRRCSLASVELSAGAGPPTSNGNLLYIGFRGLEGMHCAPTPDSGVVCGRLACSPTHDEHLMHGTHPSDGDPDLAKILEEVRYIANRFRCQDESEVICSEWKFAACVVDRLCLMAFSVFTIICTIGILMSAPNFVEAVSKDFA
T2 sequence (Q05941 23-502): as the sequence (P49582 23-502) above, with T402A counted along it
α2β2-nAChR, sequence (P12389 28-511): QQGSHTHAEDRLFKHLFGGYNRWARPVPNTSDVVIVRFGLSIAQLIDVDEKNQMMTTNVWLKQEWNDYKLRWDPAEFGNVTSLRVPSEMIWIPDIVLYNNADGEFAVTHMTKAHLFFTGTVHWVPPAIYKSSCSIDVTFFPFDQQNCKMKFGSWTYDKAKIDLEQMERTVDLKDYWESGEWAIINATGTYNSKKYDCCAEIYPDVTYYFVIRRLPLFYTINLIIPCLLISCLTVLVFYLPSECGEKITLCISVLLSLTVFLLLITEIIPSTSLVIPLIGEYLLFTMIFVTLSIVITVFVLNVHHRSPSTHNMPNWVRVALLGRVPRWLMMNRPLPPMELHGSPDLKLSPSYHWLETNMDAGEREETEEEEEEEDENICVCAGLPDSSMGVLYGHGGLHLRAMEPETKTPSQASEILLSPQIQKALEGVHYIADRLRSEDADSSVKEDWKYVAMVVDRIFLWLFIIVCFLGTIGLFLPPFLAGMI
α2β2-nAChR, sequence (P12390 25-500): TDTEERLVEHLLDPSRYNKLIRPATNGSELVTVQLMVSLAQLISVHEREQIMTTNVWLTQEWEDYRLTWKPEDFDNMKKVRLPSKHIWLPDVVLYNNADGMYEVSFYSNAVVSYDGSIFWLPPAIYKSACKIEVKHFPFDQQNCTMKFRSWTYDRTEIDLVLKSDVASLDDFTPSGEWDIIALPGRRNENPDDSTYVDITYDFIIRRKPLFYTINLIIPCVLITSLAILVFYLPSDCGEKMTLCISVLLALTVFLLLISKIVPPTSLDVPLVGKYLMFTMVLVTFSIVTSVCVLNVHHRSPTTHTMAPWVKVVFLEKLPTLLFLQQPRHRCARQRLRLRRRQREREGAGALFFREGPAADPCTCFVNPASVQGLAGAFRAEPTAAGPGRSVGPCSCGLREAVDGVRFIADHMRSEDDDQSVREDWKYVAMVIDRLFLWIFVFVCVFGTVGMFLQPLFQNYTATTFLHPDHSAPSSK

With O=S1(=O)c2cc(N3CCN4CCC3CC4)ccc2-c2cccc(F)c21 [7a, 3-(1,4-Diazabicyclo[3.2.2]nonan-4-yl)-6-fluorodibenzo[b,d]thiophene 5,5-dioxide] the pKi ([1]; read-out: α2β2 Ki, stably transfected HEK293 cells, [3H]epibatidine 0.5 nM) was less than 5.00 and the “behavioral or locomotor activity changes” value ([2]; 0.3 mg/kg) was “Neither behavioral nor locomotor activity changes were observed”.
Work on O=S1(=O)c2ccccc2-c2c(N3CCN4CCC3CC4)ccc(F)c21 [7e, 1-(1,4-Diazabicyclo[3.2.2]nonan-4-yl)-4-fluorodibenzo[b,d]thiophene 5,5-dioxide] yielded a pKi [1] of less than 5.00.
For O=S1(=O)c2ccccc2-c2ccc(N3CCN4CCC3CC4)cc21 [compound 5, 3-(1,4-diazabicyclo[3.2.2]nonan-4-yl)dibenzo[b,d]thiophene 5,5-dioxide], the pKi [3] is listed as 10.64 and the “blockade of [18F]7c accumulation in mouse brain” value [4] is listed as “Dose dependent blockade”.
With Cc1nccn1CC1CCc2c(c3ccccc3n2C)C1=O (centres unmarked) [ondansetron, Ondansetron] the “effect on accumulation of [18F]7a in mouse brain regions” value [5] was “absence of blockade”.
In the case of O=S1(=O)c2ccc(F)cc2-c2ccc(N3CCN4CCC3CC4)cc21 [7c, 7-(1,4-Diazabicyclo[3.2.2]nonan-4-yl)-2-fluorodibenzo[b,d]thiophene 5,5-dioxide], the “behavioral or locomotor activity changes” value ([2]; 0.2 mg/kg) was “Neither behavioral nor locomotor activity changes were observed”.
In the case of O=c1cccc2n1C[C@@H]1CNC[C@H]2C1 [cytisine], the “blockade of [18F]7a accumulation in mouse brain” value [6] was “insignificant reduction of radioactivity accumulation in all regions studied”.
O=S1(=O)c2cc(N3CCN4CCC3CC4)ccc2-c2cccc(I)c21 [compound 14, 3-(1,4-Diazabicyclo[3.2.2]nonan-4-yl)-6-iododibenzo[b,d]thiophene 5,5-dioxide] showed a pKi [7] of 8.71.
For [^125I]α-Bungarotoxin, the pKd [8] is listed as 9.15.
With CN1CCC[C@H]1c1cccnc1 [nicotine] the “blockade of [18F]7a accumulation in mouse brain” value [6] was “significant blockade in all regions, except the nAChR-poor cerebellum”.
In the case of O=C(Oc1ccc(Br)cc1)N1CCN2CCC1CC2 [compound 1], the “effect on accumulation of [18F]7a in mouse brain regions” value [5] is given as “reduced accumulation of radioactivity”, the pKi ([3]; ref [58]) is given as 7.66 and the “blockade of [18F]7a binding in mouse brain” value [4] is given as “dose dependent blockade in all regions studied”.
